# Experimental data as given in publication PMC4152272 (PLoS ONE, 2014).
# What was measured:
# N188 (Novozyme 188 BGL) [1] = tested on: T1, N188 (Novozyme 188 BGL); test: p-nitrophenol release, […] nm, nonlinear least squares; assay type: biochemical; settings: 50 mM acetate pH 5.0, 50°C, 1 min
# T1 construct: gene bglA; commercial preparation Novozyme 188 (Novozymes), partially purified; N-glycosylated
# N188 (Novozyme 188 BGL) [2] = tested on: T1, N188 (Novozyme 188 BGL); test: glucose release, glucose assay reagent, […] nm; assay type: biochemical; settings: 50 mM acetate pH 5.0
Structure (SMILES),Km (N188 (Novozyme 188 BGL) [1]),Km (N188 (Novozyme 188 BGL) [2])
"O=[N+]([O-])c1ccc(O[C@@H]2O[C@H](CO)[C@@H](O)[C@H](O)[C@H]2O)cc1 [pNPG, p-nitrophenyl β-D-glucopyranoside]",1.25 ± 0.164 mM,
OC[C@H]1O[C@@H](O[C@H]2[C@H](O)[C@@H](O)C(O)O[C@@H]2CO)[C@H](O)[C@@H](O)[C@@H]1O (some centres unmarked) [cellobiose],,2.53 ± 0.506 mM
